Assays:
[1] = system: cultured human non-pigmented ciliary epithelial (NPE) cells; experiment: regulatory volume decrease (RVD) following hyposmotic swelling of cultured NPE cells; format: cell-based; conditions: 20 µM BAPTA-AM loaded 30 minutes in isosmotic (290 mOsm) solution, then hyposmotic (198 mOsm) solution; cell volume by Coulter Counter; FIG. 1
Description: In this example, NPE cells were loaded in an isosmotic (290 mOsm) solution containing 20 µM BAPTA-AM for 30 minutes prior to suspension in a hyposmotoic (198 mOsm) solution. Control cells were subjected to the same hyposmotic solution but without prior loading with BAPTA. Changes in cell volume were measured using a Coulter Counter interfaced to a Coulter Channelyzer. It is noted that, following osmotic swelling, control cells regulate towards their original isosmotic volume while BAPTA-loaded cells remain swollen. The above findings indicate that intracellular BAPTA via chelation of Ca^2+i inhibits solute and osmotically obliged H2O efflux. Because the Ca^2+i-dependent ion flux pathways activated following osmotic cell swelling of NPE cells are involved in aqueous secretion, BAPTA will inhibit aqueous humor formation and, thus, lower IOP.

[2] = system: eye of a mammal suffering high intraocular pressure; experiment: intraocular pressure after instillation into the eye of a mammal suffering high intraocular pressure; format: in vivo; conditions: topical instillation in ophthalmically acceptable carrier; mammal with high intraocular pressure
Description: This compound comprises the calcium chelator BAPTA blocked with three acetoxymethyl ester (AM) moieties, and containing a single N-linked pACE group in place. The compound is dissolved in an ophthalmically acceptable carrier for topical delivery to the eye. As indicated above, such prodrug-pACE compounds are specifically targeted to cilliary epithelial and retinal cells, without substiantially affecting other cell types. In the above formulation, based on Formula B, the compound will bind acetylcholine receptors and cell surface acetylcholinesterase without being hydrolyzed thereby. The electronically neutral prodrug is then transported or permitted to penetrate the cell membrane, where cytoplasmic esterases convert the prodrug-pACE into the tetraacetic acid form of BAPTA capable of modulating the intracellular concentration of free Ca^++, thereby providing a neuroprotective function.
The compound is instilled into the eye of a mammal suffering high intraocular pressure. The prodrug-pACE compound passes through the cornea and the drug is concentrated within ciliary epithelial and retinal ganglion cells.

Row | Structure (SMILES) | effect on regulatory volume decrease (RVD) [1] | intraocular pressure following treatment versus prior to treatment [2]
1 | CC(=O)OCOC(=O)CN(CC(=O)OCOC(C)=O)c1ccccc1OCCOc1ccccc1N(CC(=O)OCOC(C)=O)CC(=O)OCOC(C)=O [BAPTA-AM, acetoxymethyl ester of BAPTA] | totally depress | 
2 | CC(=O)OCOC(=O)CN(CC(=O)OCOC(C)=O)c1ccccc1OCCOc1ccccc1N(CC(=O)OCOC(C)=O)CC(=O)OCOC(=O)CCC(=O)C(C)(C)C [Example 2] |  | significantly lower
